The values below come from ChEMBL document CHEMBL1201862, “PubChem BioAssay data set” (2004).

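1) Cells in 96-well plates. 2) Compound, 48 h, 5 concentrations. 3) Linear interpolation between surrounding doses. 4) Unreached endpoint = highest concentration. Abbreviation: GI50, concentration required for 50% inhibition of growth.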 Calls of active or inactive are those of the source. Rule as the data show it: active = GI50 up to about 1.1 µM and inactive = higher.

Test systems include SF-268; UACC-62; SK-MEL-2; NCI-H23; 786-0; HOP-62; NCI-H226; COLO 205; U-251; A498; LOX IMVI; ACHN; OVCAR-8; NCI-H460; KM12; MCF7.
What all share (experiment): NCI-60 cell line screen, 48 h

For `N#CCCc1nc2ccc(Br)cc2c(=O)n1-c1ccc(O)c([N+](=O)[O-])c1`, the GI50 is 24.1 µM (inactive) with SF-268; 18.9 µM (inactive) in the experiment with UACC-62; 18.6 µM (inactive) with SK-MEL-2; 20.8 µM (inactive) in the experiment on NCI-H23; 19.3 µM (inactive) in the experiment on 786-0; 36.5 µM (inactive) in the experiment with HOP-62. For the same compound, the GI50 with NCI-H226 is 19.9 µM (inactive); in the experiment on COLO 205 it was 22.9 µM (inactive); in the experiment on U-251, > 10 µM (inactive); in the experiment on A498 it was 47.3 µM (inactive); in the experiment on LOX IMVI, 19 µM (inactive); in the experiment with ACHN, 30.3 µM (inactive). In addition, the values for the GI50 with OVCAR-8, with NCI-H460 and with KM12 were 26.9 µM (inactive), 27.5 µM (inactive) and 18.5 µM (inactive), respectively.
As for `O=C(O)/C=C/c1ccncc1`, the GI50 in the experiment on SF-268 was > 100 µM (inactive); with UACC-62, > 100 µM (inactive); in the experiment with SK-MEL-2, > 100 µM (inactive); in the experiment with NCI-H23, > 100 µM (inactive); with 786-0 it was > 100 µM (inactive); in the experiment with HOP-62 it was 0.223 µM (active). For the same compound, the GI50 in the experiment with NCI-H226 is > 100 µM (inactive); in the experiment with COLO 205 it was > 100 µM (inactive); with U-251 it was 0.173 µM (active); in the experiment on A498 it was > 100 µM (inactive); in the experiment on LOX IMVI, > 100 µM (inactive); in the experiment on ACHN, > 100 µM (inactive). Further, the GI50 with OVCAR-8, in the experiment on NCI-H460 and in the experiment on KM12 was > 100 µM (inactive) throughout.
As for `COC(=O)/C(=N/O)C(C(=O)OC)C(=O)C(=O)Nc1c(Cl)cc(C)cc1S(=O)(=O)O` (configuration not stated), the GI50 in the experiment on SF-268, in the experiment with UACC-62, with SK-MEL-2, in the experiment with NCI-H23, in the experiment on 786-0 and with HOP-62 was > 100 µM (inactive) throughout. The GI50 in the experiment on NCI-H226 was > 100 µM (inactive); with COLO 205, > 100 µM (inactive); with U-251, > 100 µM (inactive); in the experiment with A498, > 100 µM (inactive); in the experiment on LOX IMVI, 41 µM (inactive); with ACHN, > 100 µM (inactive). Also, the GI50 in the experiment on OVCAR-8 is > 100 µM (inactive); in the experiment on NCI-H460, 41.5 µM (inactive); in the experiment with KM12, > 100 µM (inactive).
On to `O=C(CC(=O)n1nc(-c2ccccc2)c(/N=N/c2ccc(Cl)cc2)c1-c1ccccc1)Nc1ccc(Cl)cc1`, for which the GI50 in the experiment on SF-268 was > 88.7 µM (inactive); in the experiment with UACC-62, > 100 µM (inactive); in the experiment with SK-MEL-2, > 100 µM (inactive); with NCI-H23 it was > 100 µM (inactive); in the experiment on 786-0, > 43.3 µM (inactive); in the experiment with HOP-62, > 100 µM (inactive). Moreover, the GI50 in the experiment on NCI-H226 was > 100 µM (inactive); in the experiment on COLO 205, > 46.9 µM (inactive); in the experiment on U-251, > 100 µM (inactive); in the experiment with A498, > 100 µM (inactive); with LOX IMVI it was > 41.5 µM (inactive); in the experiment with ACHN, > 100 µM (inactive). Also, the figures for the GI50 with OVCAR-8, in the experiment with NCI-H460 and in the experiment with KM12 were 63.4 µM (inactive), > 43.4 µM (inactive) and 48.6 µM (inactive), respectively.
`O=C(N[C@@H](c1ccccc1)[C@@H](O)C(=O)OCc1ccc2c(c1)OCO2)c1ccccc1`: the GI50 with SF-268 was > 100 µM (inactive); in the experiment on UACC-62, > 80.7 µM (inactive); with SK-MEL-2 it was > 100 µM (inactive); in the experiment with NCI-H23, > 100 µM (inactive); in the experiment on HOP-62 it was > 100 µM (inactive); in the experiment on NCI-H226 it was > 84.1 µM (inactive). Besides, the GI50 in the experiment on COLO 205, with U-251, in the experiment with MCF7, with A498, in the experiment with LOX IMVI and in the experiment on OVCAR-8 was > 100 µM (inactive) throughout. For the same compound, the GI50 with NCI-H460 and with KM12 was > 100 µM (inactive) throughout.
As for `Cc1cccc(C(C)(C)C)c1NC(=O)CCc1nnc(S)[nH]1`, the GI50 with SF-268, in the experiment on UACC-62, in the experiment with SK-MEL-2, in the experiment with NCI-H23, in the experiment on 786-0 and in the experiment on HOP-62 was > 100 µM (inactive) throughout. Also, the GI50 in the experiment with NCI-H226, in the experiment with COLO 205, with U-251, in the experiment with A498, with LOX IMVI and in the experiment on ACHN was > 100 µM (inactive) throughout. For the same compound, the GI50 in the experiment on OVCAR-8, in the experiment with NCI-H460 and in the experiment with KM12 was > 100 µM (inactive) each time.
Turning to `Cc1cc(O)c2c(c1)C(=O)c1cc(O)cc(O)c1C2=O` [EMODIN], the GI50 is 22 µM (inactive) in the experiment with SF-268; 33.9 µM (inactive) in the experiment with SK-MEL-2; 14.9 µM (inactive) in the experiment on NCI-H23; 14.4 µM (inactive) with HOP-62; 20.1 µM (inactive) with NCI-H226; 19.8 µM (inactive) with COLO 205. Also, the GI50 in the experiment with U-251 is 24.7 µM (inactive); with A498, 21.3 µM (inactive); in the experiment on LOX IMVI it was 15.9 µM (inactive); in the experiment with ACHN, 18.6 µM (inactive); with NCI-H460 it was 20.3 µM (inactive); in the experiment on KM12, 20.5 µM (inactive).
As to `O=c1oc2c(ccc3occc32)c(N2CCCCC2)c1-c1ccccc1`, the GI50 was > 100 µM (inactive) in the experiment with SF-268; > 95.1 µM (inactive) in the experiment with UACC-62; > 100 µM (inactive) in the experiment on SK-MEL-2; > 100 µM (inactive) with NCI-H23; > 100 µM (inactive) in the experiment with HOP-62; > 100 µM (inactive) in the experiment on COLO 205. Further, the GI50 in the experiment on U-251 is > 100 µM (inactive); in the experiment with MCF7, > 93.5 µM (inactive); in the experiment on A498 it was > 100 µM (inactive); with LOX IMVI, > 100 µM (inactive); in the experiment with OVCAR-8, > 100 µM (inactive); in the experiment on NCI-H460, > 96.4 µM (inactive). For the same compound, the GI50 in the experiment with KM12 is > 66.5 µM (inactive).
For the compound `CCOC1=CP(=O)(OCC)CC(C)=C1Cl` (configuration not stated), the GI50 in the experiment on SF-268, in the experiment on UACC-62, with SK-MEL-2, in the experiment with NCI-H23, in the experiment on 786-0 and with HOP-62 was > 100 µM (inactive) throughout. Further, the GI50 in the experiment with NCI-H226 was > 100 µM (inactive); with COLO 205 it was 7.21 µM (inactive); in the experiment on U-251, > 100 µM (inactive); in the experiment on A498, > 100 µM (inactive); with LOX IMVI, > 100 µM (inactive); in the experiment on ACHN, > 100 µM (inactive). For the same compound, the GI50 with OVCAR-8, with NCI-H460 and with KM12 was > 100 µM (inactive) each time.
For `CCCCCCc1cn([C@H]2C[C@H](O)[C@@H](CO)O2)c(=O)[nH]c1=O`, the GI50 is > 100 µM (inactive) in the experiment with SF-268; > 31.6 µM (inactive) in the experiment on UACC-62; > 100 µM (inactive) in the experiment with SK-MEL-2; > 100 µM (inactive) with NCI-H23; > 10 µM (inactive) in the experiment with HOP-62; > 100 µM (inactive) with NCI-H226. Moreover, the GI50 with U-251, in the experiment with MCF7, in the experiment on A498, in the experiment on LOX IMVI, with OVCAR-8 and with NCI-H460 was > 100 µM (inactive) in each case. Further, the GI50 with KM12 was > 100 µM (inactive).
